Laboratory results reported in patent publication US7026344B2, “Treating sickle cell disease” (priority 2000, dated 2006).

System: human γ (Huγ) mRNA in K562 cells
Assay: γ globin mRNA induction in K562 cells by RNase protection assay
Assay type: cell-based
Conditions: K562
Protocol: Cell Culture. K562 cells were grown in suspension cultures in RPMI-1640 containing 10% fetal bovine serum, penicillin (100 U/ml) and streptomycin (0.1 mg/ml in a humidified incubator at 37° C. in a 5%CO2/95% air atmosphere. The following experimental conditions were analyzed in triplicate with 2×10^6 cells per well: an untreated control, ZL dissolved in 0.1% dimethylsulfoximide (DMSO) at final concentrations of […], HU at […] and two positive controls hemin (50 mM) and sodium butyrate (NB) 2 mM. The K562 cells were induced for 72 hours then RNA isolated for further analysis. Cell viability was completed by 2% trypan blue exclusion at timnes 0 and 72 hours.
RNA Isolation. RNA was isolated using RNA Stat-60 (TEL-TEST “B”, Inc., Friendswood, Tex.) according to the manufacturer's instructions. In brief, cell pellets will be suspended in RNA Stat-60 (1 ml) and chloroform (200 μl), and the RNA extracted and precipitated with isopropanol.
RNase Protection Analysis. MRNA levels will be quantitated by RNase protection assay (RPA) with probes designed to yield protected fragments for human γ (Huγ)and the internal control glyceraldehydes-3-phosphate dehydrogenase (GAPD). Huγ mRNA levels were normalized to that of GAPD and compared to the untreated K562 cells. (Zar: Statistical Analysis, Englewood)
Several pharmacological hemoglobin F inducers such as HU, 5-azacytidine, erythropoietin, didox, and butyrate alter γ gene expression in culture. The induction of γ gene activity in culture is a good indicator of potential clinical usefulness. Therefore the capability of ZL to induce γ gene activity at the mRNA level was tested. K562 cells were cultured in ZL from 0 to 100 μM or HU (50μ to 100 μM) for 48 hours. Total cellular RNA was analyzed by RPA for γ mRNA levels. An increase in γ mRNA for ZL at 20 μM with a maximal response at 75 μM (FIG. 4A) was observed. The level of γ gene mRNA synthesis was quantitated relative to the internal control, CAPD. […] K562 cell viability was decreased 10% when measured using trypan blue exclusion at 75 μM and 100 μM concentrations for both ZL and HU. The level of γ gene induction was 3.9 fold and 10-fold for the positive controls NB and hemin, respectively.

CCCC(=O)[O-].[Na+] [NB, sodium butyrate]
level of γ gene induction (positive control NB 2 mM): 3.9 fold

hemin
level of γ gene induction (positive control hemin (50 µM)): 10 fold
